The subject of one series is rabbits. In words: Ocular MTD studies, sub-conjunctival administration. The series is classed as in vivo, rabbit. The text has this: Despite technical advances in ocular surgery, the physical trauma of this procedure continues to induce post-operative ocular inflammation warranting treatment. In ocular tissue, arachidonic acid is metabolized by cyclooxygenase (COX) to prostaglandins (PG) which are the most important lipid-derived mediators of inflammation. Surgical trauma causes a trigger of the arachidonic acid cascade which in turn generates PGs by activation of COX-1 and COX-2. Phospholipids in the cell membrane are the substrate for phospholipase A to generate arachidonic acid from which a family of chemically distinct PGs and leukotriens are produced. The ‘golden standard’ for the treatment of ocular inflammation are topical corticosteroids and/or Non-Steroidal Anti-inflammatory Drugs (NSAIDs). Side effects reported with (short-term) corticosteroid use include cataract formation, increased Intra Ocular Pressure (IOP), increased susceptibility to viral infections and retardation of the corneal epithelial and stromal wound healing. In addition, prolonged treatment with corticosteroids have been known to induce systemic side effects such as glucose impairment, hypertension, development of glaucoma, visual acuity defects, loss of visual field, and posterior subcapsular cataract formation. […]

Series [1] relates to Wistar rats, PAN-induced nephropathy. Particulars: rat, in vivo. From the text: The aim of this study was to evaluate the effects of XG-102 on chronic puromycine aminonucleoside-induced nephropathy in rats during 56 days. Puromycin aminonucleoside (PAN) is a podocyte toxin inducing a loss and fusion of podocytes foot processes. PAN-induced nephropathy is a well-described model of human idiopathic […] syndrome and focal segmental glomerulosclerosis ([…], 2008). The glomerular morphologic changes seen in rats with PAN nephrosis closely resemble those in human minimal change disease (MCD) and focal segmental glomerulosclerosis (FSGS). Intraperitoneal administration of PAN in rats results in a rapid development of […] syndrome, characterized by proteinuria, hypoalbuminemia and hypercholesterolemia (acute phase). This is a well-established animal model of human MCD. […] The slides were stained by hematoxylin/eosin (HE), PAS-methenamine silver and Sirius Red for histological evaluation of morphological alterations, glomerulosclerosis and interstitial fibrosis quantification, respectively. […] Results are expressed by semi-quantitative scoring following to expert histopathologist evaluation. For the histological examination of glomerulosclerosis glomerular changes have been evaluated using a semi quantitative scoring system as described by […]. […] All data have been calculated as mean values±standard error of the mean (s.e.m.). […]

Series [2] relates to Primary cultured macrophages. Type of series: cell-based. As for the experimental part: FIG. 24 Primary cultured macrophages were incubated with XG-102 (SEQ ID NO: 11) and extensively washed.

Turning to `CC(C)C[C@@H](NC(=O)[C@@H](Cc1ccccc1)NC(=O)[C@H]1CCCN1C(=O)[C@@H](CCC(N)=O)NC(=O)[C@H](NC(=O)[C@H]1CCCN1C(=O)[C@@H](CCCNC(=N)N)NC(=O)[C@@H](CO)NC(=O)[C@@H](CCC(N)=O)NC(=O)[C@H](N)CC(=O)O)C(C)C)C(=O)N[C@H](CC(N)=O)C(=O)N[C@H](CC(C)C)C(=O)N[C@@H](C(=O)N[C@@H](C(=O)N1CCC[C@@H]1C(=O)N[C@H](CCCNC(=N)N)C(=O)N[C@H](CCCCN)C(=O)N1CCC[C@@H]1C(=O)N[C@H](CCCNC(=N)N)C(=O)N1CCC[C@@H]1C(=O)N1CCC[C@@H]1C(=O)N[C@H](CCCNC(=N)N)C(=O)N[C@H](CCCNC(=N)N)C(=O)N[C@H](CCCNC(=N)N)C(=O)N[C@H](CCC(N)=O)C(=O)N[C@H](CCCNC(=N)N)C(=O)N[C@H](CCCNC(=N)N)C(=O)N[C@H](CCCCN)C(=O)N[C@H](CCCCN)C(=O)N[C@H](CCCNC(=N)N)C(=O)NCC(=O)O)[C@H](C)O)[C@H](C)O` [XG-102], in the series with rabbits, the “No Observed Adverse Effect Level (NOAEL)” value is around 600 µg. The body weight result in series [1] was “no effects of XG-102 were observed”. In addition, in series [2], the incorporation into macrophages entry was “is strongly incorporated into primary macrophages”.

The values are drawn from patent US11779628B2, “Use of cell-permeable peptide inhibitors of the JNK signal transduction pathway for the treatment of various diseases” (Xigen Inflammation Ltd., priority 2014, dated 2023).
